# Data published in ChEMBL document CHEMBL1201862, “PubChem BioAssay data set” (2004).
#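 How tested: cells in 96-well plates exposed to compound for 48 hours at five concentrations. GI50: concentration for 50% inhibition of growth.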 Calls of active or inactive are those of the source. Cut-off read from the data, not from the text of the source: active = GI50 up to about 1.1 µM and inactive = higher.
# How the values were obtained:
# Experiment in all cases: NCI anticancer screen, dose series, 48 h
# 786-0 = tested on: 786-0
# A498 = tested on: A498
# A549 = tested on: A549
# ACHN = tested on: ACHN
# BT-549 = tested on: BT-549
# CAKI-1 = tested on: CAKI-1
# CCRF-CEM = tested on: CCRF-CEM
# COLO 205 = tested on: COLO 205
# DU-145 = tested on: DU-145
# EKVX = tested on: EKVX
# HCC 2998 = tested on: HCC 2998
# HCT-116 = tested on: HCT-116
# HCT-15 = tested on: HCT-15
# HL-60 = tested on: HL-60
# HOP-62 = tested on: HOP-62
# HOP-92 = tested on: HOP-92
# HT-29 = tested on: HT-29
# Hs-578T = tested on: Hs-578T
# IGROV-1 = tested on: IGROV-1
# K562 = tested on: K562
# KM12 = tested on: KM12
# LOX IMVI = tested on: LOX IMVI
# M14 = tested on: M14
# MCF7 = tested on: MCF7
# MDA-MB-231 = tested on: MDA-MB-231
# MDA-MB-435 = tested on: MDA-MB-435
# MDA-N = tested on: MDA-N
# MOLT-4 = tested on: MOLT-4
# Malme-3M = tested on: Malme-3M
# NCI-H226 = tested on: NCI-H226
# NCI-H23 = tested on: NCI-H23
# NCI-H460 = tested on: NCI-H460
# NCI-H522 = tested on: NCI-H522
# NCI/ADR-RES = tested on: NCI/ADR-RES
# OVCAR-3 = tested on: OVCAR-3
# OVCAR-4 = tested on: OVCAR-4
# OVCAR-5 = tested on: OVCAR-5
# OVCAR-8 = tested on: OVCAR-8
# PC-3 = tested on: PC-3
# RPMI-8226 = tested on: RPMI-8226
# RXF 393 = tested on: RXF 393
# SF-268 = tested on: SF-268
# SF-295 = tested on: SF-295
# SF-539 = tested on: SF-539
# SK-MEL-28 = tested on: SK-MEL-28
# SK-MEL-2 = tested on: SK-MEL-2
# SK-MEL-5 = tested on: SK-MEL-5
# SK-OV-3 = tested on: SK-OV-3
# SN12C = tested on: SN12C
# SNB-19 = tested on: SNB-19
# SNB-75 = tested on: SNB-75
# SR = tested on: SR
# SW-620 = tested on: SW-620
# T47D = tested on: T47D
# TK-10 = tested on: TK-10
# U-251 = tested on: U-251
# UACC-257 = tested on: UACC-257
# UACC-62 = tested on: UACC-62
# UO-31 = tested on: UO-31
structure (smiles),measurement,setting,value
COc1ccc(C(SCC(N)C(=O)O)(c2ccc(OC)cc2)c2ccc(OC)cc2)cc1 (stereo unspecified),GI50,786-0,13.4 µM (inactive)
same,GI50,A498,14.7 µM (inactive)
same,GI50,A549,17.1 µM (inactive)
same,GI50,ACHN,12 µM (inactive)
same,GI50,BT-549,12.8 µM (inactive)
same,GI50,CAKI-1,17.3 µM (inactive)
same,GI50,CCRF-CEM,13.7 µM (inactive)
same,GI50,COLO 205,12.4 µM (inactive)
same,GI50,DU-145,> 10 µM (inactive)
same,GI50,EKVX,13.7 µM (inactive)
same,GI50,HCC 2998,12.9 µM (inactive)
same,GI50,HCT-116,6.98 µM (inactive)
same,GI50,HCT-15,11.6 µM
same,GI50,HL-60,14 µM (inactive)
same,GI50,HOP-62,13 µM (inactive)
same,GI50,HOP-92,14.7 µM (inactive)
same,GI50,HT-29,10.6 µM (inactive)
same,GI50,Hs-578T,12.2 µM (inactive)
same,GI50,IGROV-1,13.3 µM (inactive)
same,GI50,K562,10 µM (inactive)
same,GI50,KM12,6.32 µM (inactive)
same,GI50,LOX IMVI,9.02 µM (inactive)
same,GI50,M14,10.2 µM (inactive)
same,GI50,MCF7,8.63 µM (inactive)
same,GI50,MDA-MB-231,13.2 µM (inactive)
same,GI50,MDA-MB-435,2.97 µM (inactive)
same,GI50,MDA-N,3.5 µM (inactive)
same,GI50,MOLT-4,12.6 µM (inactive)
same,GI50,Malme-3M,10.8 µM (inactive)
same,GI50,NCI-H226,13.2 µM (inactive)
same,GI50,NCI-H23,12.4 µM (inactive)
same,GI50,NCI-H460,11.3 µM (inactive)
same,GI50,NCI-H522,14.1 µM (inactive)
same,GI50,NCI/ADR-RES,10.6 µM (inactive)
same,GI50,OVCAR-3,12.2 µM (inactive)
same,GI50,OVCAR-4,13.8 µM (inactive)
same,GI50,OVCAR-5,13.9 µM (inactive)
same,GI50,OVCAR-8,12.4 µM (inactive)
same,GI50,PC-3,11.1 µM (inactive)
same,GI50,RPMI-8226,15.9 µM (inactive)
same,GI50,RXF 393,8.47 µM (inactive)
same,GI50,SF-268,13.4 µM (inactive)
same,GI50,SF-295,11.8 µM (inactive)
same,GI50,SF-539,12.9 µM (inactive)
same,GI50,SK-MEL-28,11.8 µM (inactive)
same,GI50,SK-MEL-2,12 µM (inactive)
same,GI50,SK-MEL-5,> 10 µM (inactive)
same,GI50,SK-OV-3,21.2 µM (inactive)
same,GI50,SN12C,12.7 µM (inactive)
same,GI50,SNB-19,14.1 µM (inactive)
same,GI50,SNB-75,11.3 µM (inactive)
same,GI50,SR,6.27 µM (inactive)
same,GI50,SW-620,> 10 µM (inactive)
same,GI50,T47D,12.2 µM (inactive)
same,GI50,TK-10,14.9 µM (inactive)
same,GI50,U-251,14.8 µM (inactive)
same,GI50,UACC-257,11.9 µM (inactive)
same,GI50,UACC-62,10.7 µM (inactive)
same,GI50,UO-31,11.9 µM (inactive)
CCCN(C(=O)c1ccccc1)C(C#N)c1ccc(C(C#N)N(CCC)C(=O)c2ccccc2)cc1 (stereo unspecified),GI50,786-0,38.1 µM (inactive)
same,GI50,A498,37.1 µM (inactive)
same,GI50,A549,56.6 µM (inactive)
same,GI50,ACHN,84.1 µM (inactive)
same,GI50,BT-549,48.4 µM (inactive)
same,GI50,CAKI-1,> 100 µM (inactive)
same,GI50,CCRF-CEM,> 100 µM (inactive)
same,GI50,COLO 205,> 100 µM (inactive)
same,GI50,DU-145,77.6 µM (inactive)
same,GI50,EKVX,58.3 µM (inactive)
same,GI50,HCC 2998,> 100 µM (inactive)
same,GI50,HCT-116,> 100 µM (inactive)
same,GI50,HCT-15,> 100 µM
same,GI50,HL-60,> 100 µM (inactive)
same,GI50,HOP-62,27.1 µM (inactive)
same,GI50,HOP-92,16.3 µM (inactive)
same,GI50,HT-29,21.6 µM (inactive)
same,GI50,Hs-578T,24.9 µM (inactive)
same,GI50,IGROV-1,32.4 µM (inactive)
same,GI50,K562,> 100 µM (inactive)
same,GI50,KM12,> 100 µM (inactive)
same,GI50,LOX IMVI,> 100 µM (inactive)
same,GI50,M14,> 100 µM (inactive)
same,GI50,MCF7,> 100 µM (inactive)
same,GI50,MDA-MB-231,66.1 µM (inactive)
same,GI50,MDA-MB-435,> 100 µM (inactive)
same,GI50,MDA-N,> 100 µM (inactive)
same,GI50,MOLT-4,> 100 µM (inactive)
same,GI50,Malme-3M,> 100 µM (inactive)
same,GI50,NCI-H226,20 µM (inactive)
same,GI50,NCI-H23,> 100 µM (inactive)
same,GI50,NCI-H522,> 100 µM (inactive)
same,GI50,NCI/ADR-RES,38.5 µM (inactive)
same,GI50,OVCAR-3,> 100 µM (inactive)
same,GI50,OVCAR-4,14.5 µM (inactive)
same,GI50,OVCAR-5,93.3 µM (inactive)
same,GI50,OVCAR-8,55.3 µM (inactive)
same,GI50,PC-3,68.9 µM (inactive)
same,GI50,RPMI-8226,> 100 µM (inactive)
same,GI50,RXF 393,35.6 µM (inactive)
same,GI50,SF-268,85.9 µM (inactive)
same,GI50,SF-295,42.4 µM (inactive)
same,GI50,SF-539,28.5 µM (inactive)
same,GI50,SK-MEL-2,> 100 µM (inactive)
same,GI50,SK-MEL-5,92.5 µM (inactive)
same,GI50,SK-OV-3,22 µM (inactive)
same,GI50,SN12C,> 100 µM (inactive)
same,GI50,SNB-19,26.1 µM (inactive)
same,GI50,SNB-75,18.4 µM (inactive)
same,GI50,SR,> 100 µM (inactive)
same,GI50,SW-620,> 100 µM (inactive)
same,GI50,T47D,11.2 µM (inactive)
same,GI50,TK-10,> 100 µM (inactive)
same,GI50,U-251,40 µM (inactive)
same,GI50,UACC-257,> 100 µM (inactive)
same,GI50,UACC-62,45 µM (inactive)
same,GI50,UO-31,> 100 µM (inactive)
